Test results taken from publication PMC10233829 (ACS Omega, 2023).
≈ marks a conversion by molar mass, not a printed value.

System: M. tuberculosis Spec 210
Assay: microbe, parasite or virus in culture
Type: cell-based, Mycobacterium tuberculosis
Conditions: for MIC: Mycobacterium tuberculosis, SPEC210, read-out: MIC M. tuberculosis Spec 210 (multidrug-resistant), MABA; for MIC M. tuberculosis Spec 210 (multidrug-resistant): MABA

SMILES	MIC [µg/mL]	MIC M. tuberculosis Spec 210 (multidrug-resistant) [µg/mL]
[H]/N=C(/N)N[C@H]1[C@H](O)[C@@H](O)[C@H](O[C@@H]2O[C@@H](C)[C@](O)(C=O)[C@H]2O[C@@H]2O[C@@H](CO)[C@H](O)[C@@H](O)[C@@H]2NC)[C@@H](N/C(N)=N\[H])[C@@H]1O [streptomycin (SM), streptomycin, reference compound]	16 (≈ 27.5 µM)	–
O=C(O)c1cn(C2CC2)c2cc(N3CCN(CCCC(=O)N4CCN(c5cc6c(cc5F)c(=O)c(C(=O)O)cn6C5CC5)CC4)CC3)c(F)cc2c1=O [Compound 18, CP–Butyryl–CP Dimer]	4 (≈ 5.47 µM)	–
O=C(O)c1cn(C2CC2)c2cc(N3CCN(CCCCCCCCCCC(=O)N4CCN(c5cc6c(cc5F)c(=O)c(C(=O)O)cn6C5CC5)CC4)CC3)c(F)cc2c1=O [Compound 21, CP–Undecanoyl–CP Dimer]	1 to 2 (≈ 1.21 to 2.41 µM)	1 (≈ 1.21 µM)
O=C(O)c1cn(C2CC2)c2cc(N3CCN(C(=O)CBr)CC3)c(F)cc2c1=O [Compound 8, 7-[4-(2-Bromoacetyl)-piperazin-1-yl]-1-cyclopropyl-6-fluoro-4-oxo-1,4-dihydro-quinoline-3-carboxylic Acid]	8 (≈ 17.7 µM)	–
O=C(O)c1cn(C2CC2)c2cc(N3CCN(C(=O)CCl)CC3)c(F)cc2c1=O [Compound 3, 7-[4-(2-Chloroacetyl)-piperazin-1-yl]-1-cyclopropyl-6-fluoro-4-oxo-1,4-dihydro-quinoline-3-carboxylic Acid]	1 to 2 (≈ 2.45 to 4.9 µM)	2 (≈ 4.9 µM)
O=C(O)c1cn(C2CC2)c2cc(N3CCN(CCCCC(=O)N4CCN(c5cc6c(cc5F)c(=O)c(C(=O)O)cn6C5CC5)CC4)CC3)c(F)cc2c1=O [Compound 19, CP–Pentanoyl–CP Dimer]	1 to 2 (≈ 1.34 to 2.69 µM)	1 (≈ 1.34 µM)
O=C(O)c1cn(C2CC2)c2cc(N3CCN(C(=O)CCCCCCl)CC3)c(F)cc2c1=O [Compound 7, 7-[4-(6-Chlorohexanoyl)-piperazin-1-yl]-1-cyclopropyl-6-fluoro-4-oxo-1,4-dihydro-quinoline-3-carboxylic Acid]	≤ 0.25	–
O=C(O)c1cn(C2CC2)c2cc(N3CCN(C(=O)C4CC4)CC3)c(F)cc2c1=O [Compound 2, 7-(4-Cyclopropanecarbonyl-piperazin-1-yl)-1-cyclopropyl-6-fluoro-4-oxo-1,4-dihydro-quinoline-3-carboxylic Acid]	≤ 0.25	–
O=C(O)c1cn(C2CC2)c2cc(N3CCN(C(=O)CC(F)(F)F)CC3)c(F)cc2c1=O [Compound 14, 7-[4-(3,3,3-Trifluoropropionyl)-piperazin-1-yl]-1-cyclopropyl-6-fluoro-4-oxo-1,4-dihydro-quinoline-3-carboxylic Acid]	32 (≈ 72.5 µM)	–
O=C(O)c1cn(C2CC2)c2cc(N3CCN(C(=O)CCCCCCCCCCBr)CC3)c(F)cc2c1=O [Compound 13, 7-[4-(11-Bromoundekanoyl)-piperazin-1-yl]-1-cyclopropyl-6-fluoro-4-oxo-1,4-dihydro-quinoline-3-carboxylic Acid]	1 to 2 (≈ 1.73 to 3.46 µM)	1 (≈ 1.73 µM)
O=C(O)c1cn(C2CC2)c2cc(N3CCN(C(=O)CCCCCl)CC3)c(F)cc2c1=O [Compound 6, 7-[4-(5-Chloropentanoyl)-piperazin-1-yl]-1-cyclopropyl-6-fluoro-4-oxo-1,4-dihydro-quinoline-3-carboxylic Acid]	≤ 0.25	–
O=C(O)c1cn(C2CC2)c2cc(N3CCN(CCCCCC(=O)N4CCN(c5cc6c(cc5F)c(=O)c(C(=O)O)cn6C5CC5)CC4)CC3)c(F)cc2c1=O [Compound 20, CP–Hexanoyl–CP Dimer]	16 (≈ 21.1 µM)	–
CC[C@@H](CO)NCCN[C@@H](CC)CO [ethambutol(EMB), ethambutol, reference compound]	32 (≈ 157 µM)	–
O=C(O)c1cn(C2CC2)c2cc(N3CCN(CC(=O)N4CCN(c5cc6c(cc5F)c(=O)c(C(=O)O)cn6C5CC5)CC4)CC3)c(F)cc2c1=O [Compound 17, CP–Acetyl–CP Dimer]	16 (≈ 22.8 µM)	–
CO[C@H]1/C=C/O[C@@]2(C)Oc3c(C)c(O)c4c(O)c(c(/C=N/N5CCN(C)CC5)c(O)c4c3C2=O)NC(=O)/C(C)=C\C=C\[C@H](C)[C@H](O)[C@@H](C)[C@@H](O)[C@@H](C)[C@H](OC(C)=O)[C@@H]1C [rifampicin (RMP), rifampicin, reference compound]	32 (≈ 38.9 µM)	–
O=C(O)c1cn(C2CC2)c2cc(N3CCN(C(=O)CCC(F)(F)F)CC3)c(F)cc2c1=O [Compound 15, 7-[4-(4,4,4-Trifluorobutyryl)-piperazin-1-yl]-1-cyclopropyl-6-fluoro-4-oxo-1,4-dihydro-quinoline-3-carboxylic Acid]	32 (≈ 70.3 µM)	–
O=C(O)c1cn(C2CC2)c2cc(N3CCN(C(=O)CCCCCBr)CC3)c(F)cc2c1=O [Compound 12, 7-[4-(6-Bromohexanoyl)-piperazin-1-yl]-1-cyclopropyl-6-fluoro-4-oxo-1,4-dihydro-quinoline-3-carboxylic Acid]	≤ 0.25	–
O=C(O)c1cn(C2CC2)c2cc(N3CCN(C(=O)CCCC(F)(F)F)CC3)c(F)cc2c1=O [Compound 16, 7-[4-(5,5,5-Trifluoropentanoyl)-piperazin-1-yl]-1-cyclopropyl-6-fluoro-4-oxo-1,4-dihydro-quinoline-3-carboxylic Acid]	32 (≈ 68.2 µM)	–
O=C(O)c1cn(C2CC2)c2cc(N3CCN(C(=O)CCBr)CC3)c(F)cc2c1=O [Compound 9, 7-[4-(3-Bromopropionyl)-piperazin-1-yl]-1-cyclopropyl-6-fluoro-4-oxo-1,4-dihydro-quinoline-3-carboxylic Acid]	1 to 2 (≈ 2.14 to 4.29 µM)	1 (≈ 2.14 µM)
O=C(O)c1cn(C2CC2)c2cc(N3CCN(C(=O)CCCBr)CC3)c(F)cc2c1=O [Compound 10, 7-[4-(4-Bromobutyryl)-piperazin-1-yl]-1-cyclopropyl-6-fluoro-4-oxo-1,4-dihydro-quinoline-3-carboxylic Acid]	≤ 0.25	–
O=C(O)c1cn(C2CC2)c2cc(N3CCN(C(=O)CCCCl)CC3)c(F)cc2c1=O [Compound 5, 7-[4-(4-Chlorobutyryl)-piperazin-1-yl]-1-cyclopropyl-6-fluoro-4-oxo-1,4-dihydro-quinoline-3-carboxylic Acid]	≤ 0.25	–
C=CC(=O)N1CCN(c2cc3c(cc2F)c(=O)c(C(=O)O)cn3C2CC2)CC1 [Compound 1, 7-(4-Acryloyl-piperazin-1-yl)-1-cyclopropyl-6-fluoro-4-oxo-1,4-dihydro-quinoline-3-carboxylic Acid]	1 to 2 (≈ 2.59 to 5.19 µM)	2 (≈ 5.19 µM)
NNC(=O)c1ccncc1 [isoniazid (INH), isoniazid, reference compound]	16 (≈ 117 µM)	–
O=C(O)c1cn(C2CC2)c2cc(N3CCN(C(=O)CCCCBr)CC3)c(F)cc2c1=O [Compound 11, 7-[4-(5-Bromopentanoyl)-piperazin-1-yl]-1-cyclopropyl-6-fluoro-4-oxo-1,4-dihydro-quinoline-3-carboxylic Acid]	≤ 0.25	–
O=C(O)c1cn(C2CC2)c2cc(N3CCN(C(=O)CCCl)CC3)c(F)cc2c1=O [Compound 4, 7-[4-(3-Chloropropionyl)-piperazin-1-yl]-1-cyclopropyl-6-fluoro-4-oxo-1,4-dihydro-quinoline-3-carboxylic Acid]	1 to 2 (≈ 2.37 to 4.74 µM)	2 (≈ 4.74 µM)
